COC(=O)/C=C(\C)NC(C(=O)[O-])c1ccc(O)cc1.[K+] (stereo not given)
Details | solubility (mole fraction)
in ethanol, 278.22 K | 0.000319
in ethanol, 283.26 K | 0.000342
in ethanol, 288.21 K | 0.000369
in ethanol, 293.04 K | 0.0004
in ethanol, 298.07 K | 0.000438
in ethanol, 303.29 K | 0.000481
in ethanol, 308.21 K | 0.000527
in ethanol, 313.09 K | 0.000577
in ethanol, 318.23 K | 0.000635
in ethanol, 323.11 K | 0.000694
in methanol, 278.24 K | 0.00281
in methanol, 283.28 K | 0.00303
in methanol, 288.04 K | 0.00325
in methanol, 293.35 K | 0.0035
in methanol, 298.31 K | 0.00375
in methanol, 302.97 K | 0.00398
in methanol, 308.19 K | 0.00426
in methanol, 313.32 K | 0.00453
in methanol, 318.11 K | 0.0048
in methanol, 322.45 K | 0.00505

Reference: BigSolDB 2.1
